Tested on: MCF10AT1-vector tumors
Experiment: MCF10AT1-vector (CRYβB2-lacking) xenograft tumor growth in NSG mice
Format: in vivo
Conditions: palbociclib 50 mg/kg oral, 5 days/week, 2 weeks; tumors lack CRYβB2 expression

Question: How did the tumor size turn out when `CC(=O)c1c(C)c2cnc(Nc3ccc(N4CCNCC4)cn3)nc2n(C2CCCC2)c1=O` [palbociclib] was run?
Answer: The tumor size was “no effect”.

— patent publication US20230160018A1, “CRYBETAB2 PREDICTS POOR BREAST CANCER OUTCOME AND SENSITIZES TUMORS TO NUCLEOLIN AND CDK INHIBITION” (The Johns Hopkins University, priority 2020, published 2023)
